Measured values: ChEMBL document CHEMBL4834478, “Synthesis and biological evaluation of novel 1,4-benzodiazepin-3-one derivatives as potential antitumor agents against prostate cancer” (Bioorg Med Chem, 2021)
The source made the active and inactive calls. No cut-off for these calls is given here.

How the values were obtained:
PANC-1 [1] = test: Antiproliferative activity against human PANC-1 cells assessed as inhibition of cell proliferation at 2 uM measured after 48 hrs by MTT assay; type: functional, cell-based
OVCAR-3 [2] = test: Antiproliferative activity against human OVCAR-3 cells assessed as inhibition of cell proliferation at 15 uM measured after 48 hrs by MTT assay; type: functional, cell-based
PANC-1 [3] = test: Antiproliferative activity against human PANC-1 cells assessed as inhibition of cell proliferation at 15 uM measured after 48 hrs by MTT assay; type: functional, cell-based
PC-3 [4] = test: Antiproliferative activity against human PC3 cells assessed as inhibition of cell proliferation at 2 uM measured after 48 hrs by MTT assay; type: functional, cell-based
PC-3 [5] = test: Antiproliferative activity against human PC3 cells assessed as inhibition of cell proliferation at 15 uM measured after 48 hrs by MTT assay; type: functional, cell-based
OVCAR-3 [6] = test: Antiproliferative activity against human OVCAR-3 cells assessed as inhibition of cell proliferation at 2 uM measured after 48 hrs by MTT assay; type: functional, cell-based
PC-3 [7] = test: Antiproliferative activity against human PC3 cells assessed as inhibition of cell growth measured after 72 hrs by MTT assay; type: functional
[8] = Metabolic stability in human liver microsomes assessed as compound degradation at 10 uM measured after 15 mins by HPLC method; type: ADME, Microsome; conditions: read-out: Drug degradation
[9] = Metabolic stability in human liver microsomes assessed as compound degradation at 10 uM measured after 30 mins by HPLC method; type: ADME, Microsome; conditions: read-out: Drug degradation
PC-3 [10] = test: Antitumour activity against human PC-3 cells xenografted in chick chorioallantoic membrane assessed as inhibition of tumour growth at 10 ug, iv measured after 7 days; type: functional; conditions: dose 10 µg; time 7 day
[11] = Toxicity in chick embryo assessed as embryo weight at 10 to 50 ug, iv measured after 7 days; type: organism-based, Gallus gallus; conditions: chicken, in vivo, 168 h, dose 10-50 µg, time 7 day
PC-3 [12] = test: Antitumour activity against human PC-3 cells xenografted in chick chorioallantoic membrane assessed as inhibition of tumour growth at 50 ug, iv measured after 7 days; type: functional; conditions: dose 50 µg; time 7 day
RPTEC = test: Cytotoxicity against human RPTEC cells assessed as inhibition of cell proliferation measured after 72 hrs by MTT assay; type: cell-based
PC-3 [13] = test: Antiproliferative activity against human PC3 cells assessed as cellular metabolic activity at 15 uM measured after 48 hrs by MTT assay; type: functional
PC-3 [14] = test: Induction of apoptosis in human PC-3 cells assessed as increase in Caspase-3 activity using Z-Asp-Glu-Val-Asp-AMC peptide as substrate at 10 uM measured after 24 to 48 hrs by based flourimetric assay; type: functional, cell-based; conditions: time 24-48 hrs
DU-145 = test: Antiproliferative activity against human DU-145 cells assessed as inhibition of cell proliferation measured after 72 hrs by MTT assay; type: functional, cell-based
LNCaP = test: Antiproliferative activity against human LNCaP cells assessed as inhibition of cell proliferation measured after 72 hrs by MTT assay; type: functional, cell-based
LAPC4 = test: Antiproliferative activity against human LAPC4 cells assessed as inhibition of cell proliferation measured after 72 hrs by MTT assay; type: functional, cell-based

Row | SMILES | Activity (PANC-1 [1]) | Activity (OVCAR-3 [2]) | Activity (PANC-1 [3]) | Activity (PC-3 [4]) | Activity (PC-3 [5]) | Activity (OVCAR-3 [6]) | GI50 (PC-3 [7]) [µM] | metabolised at 0.25 h, 10 µM [8] [%] | metabolised at 0.5 h, 10 µM [9] [%] | TGI (PC-3 [10]) [%] | Activity [11] | TGI (PC-3 [12]) [%] | Activity (RPTEC) | Activity (PC-3 [13]) [%] | Activity (PC-3 [14]) | Activity (DU-145) | Activity (LNCaP) | Activity (LAPC4)
1 | CC(C)C[C@@H]1Nc2ccc([N+](=O)[O-])cc2C(C(=O)NC(C)(C)C)N(Cc2ccc3c(c2)OCO3)C1=O (mixture of isomers) | inactive | Active | inactive | inactive | Active | inactive |  |  |  |  |  |  |  |  |  |  |  | 
2 | CC(C)(C)NC(=O)[C@H]1c2cc([N+](=O)[O-])ccc2N[C@@H](Cc2ccccc2)C(=O)N1Cc1ccccc1 |  |  |  |  |  |  | 10.8 | 26 | 41 |  |  |  |  |  |  |  |  | 
3 | CC(C)(C)NC(=O)C1c2cc([N+](=O)[O-])ccc2N[C@@H](Cc2ccccc2)C(=O)N1Cc1ccccc1 (mixture of isomers) | inactive | Active | inactive | inactive |  | inactive | 10.2 |  |  | 45 | Non-Toxic | 53 | Non-Toxic | 30 | Active | inactive | inactive | inactive
4 | CC(C)C[C@@H]1Nc2ccc([N+](=O)[O-])cc2C(C(=O)NC(C)(C)C)N(Cc2ccccc2)C1=O (mixture of isomers) | inactive | Active | inactive | inactive | Active | inactive |  |  |  |  |  |  |  |  |  |  |  | 
5 | CC(C)(C)NC(=O)[C@@H]1c2cc([N+](=O)[O-])ccc2N[C@@H](Cc2ccccc2)C(=O)N1Cc1ccccc1 |  |  |  |  |  |  | 7 | 41 | 50 |  |  |  |  |  |  |  |  | 
